# Numbers after ± are expanded uncertainties.
# Legend:
# [1] = Crystal; DTA
# [2] = Molar enthalpy of transition or fusion; conditions: Crystal; DSC
compound,measurement,setting,value
"COC(=O)c1ccc(C(=O)OC)cc1 [dimethyl 1,4-benzenedicarboxylate]",Normal melting temperature,[1],140.8 ± 1 °C
same,Molar enthalpy of transition or fusion,[2],8.48 ± 0.191 kcal/mol
